From PubChem BioAssay AID2423 (Broad Institute, 2010)
Values joined by “and” are separate entries in the source; they are usually repeats but may differ in a detail not shown here. Identical values can stand only once. Records with an inconclusive call do not appear. Active and inactive are the calls of the source. No rule for the calls is given here.

Test system: C. albicans CaCi-8 + fluconazole, Alamar Blue growth, 48 h
Experiment: resistant C. albicans growth inhibition with fluconazole, dose response, CaCi-8 strain, Alamar Blue fluorescence (AID 2423)

| SMILES | EC50 |
| --- | --- |
| CCCCCCCCCCCCCCCC[N+](C)(C)C | > 15000 nM (inactive) |
| Cc1ccc(S(=O)(=O)CC2CSc3nc4ccccc4n32)cc1 (stereo unspecified) | 2520 nM |
| Cc1ccc(C(=O)c2oc3nc(C)cc(C)c3c2N)cc1 | 5280 nM |
| CCN(CC)c1ccc(/C=N/NC(=O)CNC(=O)C2COc3ccccc3O2)c(O)c1 (stereo unspecified) | 1110 nM |
| S=C(Nc1ccccc1)Nc1nc2ccccc2n1CCOc1ccc(Cl)cc1 | 962 nM |
| O=C(NC1CCCCC1)c1cc([N+](=O)[O-])[nH]n1 | 1120 nM |
| O=C(CCC(=O)Nc1ccccc1Cl)NNS(=O)(=O)c1ccc(Cl)cc1 | > 16000 nM (inactive) |
| CN(C)c1cc[n+](CC(=O)c2ccc(-c3ccccc3)cc2)cc1 | 4980 nM |
| CCCc1ccc(OCC(=O)Nc2cc(S(=O)(=O)CC)ccc2O)cc1 | 439 nM |
| O=C(/C=C/c1ccc(F)cc1)N1CCN(c2ccccn2)CC1 | 800 nM |
| O=S(=O)(Nc1nc2ccccc2s1)c1ccc(Br)s1 | 1730 nM |
| Cc1ccc(-c2nnc(NC(=O)c3ccc([N+](=O)[O-])o3)o2)c(C)c1 | 2160 nM |
| CC(=O)Nc1ccc(Nc2c3ccccc3nc3ccccc23)cc1 | 5980 nM |
| COc1ccc(-c2nnc(NC(=O)c3cc(Cl)ccc3Cl)o2)cc1 | 1120 nM |
| Oc1ccccc1C(Nc1nccs1)c1ccc2cccnc2c1O (stereo unspecified) | 2730 nM |
| CC1=C(CC[C@@H](C)CO)OC2CC3C4CCC5CC(O)CCC5(C)C4CC(=O)C3(C)C12 (stereo partly specified) | 135 nM |
| CCOC(=O)c1nc(NNC(=O)c2ccc([N+](=O)[O-])cc2)sc1C | 981 nM |
| COc1ccc(-c2cc(=O)oc3cc(OC(=O)C4CCCCC4)c(Cl)cc23)cc1 | 1120 nM |
| CC(C)(C)c1ccc(C(=O)CC(=O)c2cc(Cl)ccc2O)cc1 | 4770 nM |
| O=C(NCc1ccco1)c1ccccc1NS(=O)(=O)c1ccc(Br)s1 | > 16000 nM (inactive) |
| O=C(CCS(=O)(=O)c1ccc(Cl)cc1)Nc1nc(-c2ccncc2)cs1 | 709 nM |
| O=C(NNC(=S)NC1CCCCC1)c1ccccc1Br | > 16000 nM (inactive) |
| COc1cc2c(O)c3c(c(-c4ccc5c(c4)OCO5)c2cc1OC)C(=O)OC3 | 2210 nM |

| SMILES | EC50 |
| --- | --- |
| Oc1ccc(CN2CCC(Cc3ccccc3)CC2)c2cccnc12 | 1340 nM |
| O=C(CN1C(=O)COc2ccccc21)NCCCN1CCc2ccccc2C1 | > 15000 nM (inactive) |
| CN1C(=O)/C(=C/c2cn(CC(=O)N3CCCCC3)c3ccccc23)NC1=S | > 15000 nM (inactive) |
| Cc1onc(-c2c(Cl)cccc2Cl)c1C(=O)N/N=C(\N)COc1ccc(Cl)cc1 | 1700 nM |
| COC(=O)C1=NN(C(=O)c2ccc(Cl)cc2)C(O)(c2ccccc2)C1 (stereo unspecified) | > 16000 nM (inactive) |
| C/C(=N\N1C(=O)CSC1=S)c1ccc(Br)cc1 | 11900 nM |
| Nc1nc(-c2ccccc2)c(N=Nc2ccccc2Cl)s1 | 6250 nM |
| N/C(Cc1ccc(Cl)c(Cl)c1)=N\OC(=O)c1cccs1 | 893 nM |
| Cc1ccc(S(=O)(=O)c2ncccc2[N+](=O)[O-])cc1 | 1090 nM |
| COc1ccc(N(C(=O)Cn2nnc3ccccc32)C(C(=O)NC(C)(C)C)c2ccc(OC)c(O)c2)cc1 (stereo unspecified) | 2210 nM |
| C(#Cc1ccccc1)C[N+]1(CC#Cc2ccccc2)CCCCC1 | 10500 nM |
| COc1cccc(C(=O)NNC(=O)c2ccccc2Br)c1 | > 15000 nM (inactive) |
| Cc1ccc(Nc2nc(NCc3ccco3)c3ccccc3n2)cc1 | 2440 nM |
| COc1cccc2c(SCC(=O)N/N=C/c3ccc(O)c(O)c3)cc(C)nc12 | > 16000 nM (inactive) |
| Cc1ccc2nc(/C(C#N)=C\c3ccc(OC(=O)c4cccs4)cc3)[nH]c2c1 | 528 nM |
| CC(C)CCNCC(=O)NC(c1ccccc1)c1ccccc1 | > 16000 nM (inactive) |
| Nc1c(S(=O)(=O)c2cccc(Cl)c2)c2nc3ccccc3nc2n1/N=C/c1ccc(O)c(O)c1 | 6480 nM |
| CCN(CC)c1cccc(OC2=NS(=O)(=O)c3ccccc32)c1 | 11000 nM |
| O=C(Nc1sc2c(c1C(=O)c1ccc(Cl)cc1)CCCC2)c1cccnc1 | 615 nM |
| COc1cccc(N=Nc2ccc(O)c3ncccc23)c1 | 505 nM |
| CCOC(=O)c1cnc(-n2cc(C)cn2)nc1Nc1ccccc1OCC | 12500 nM |
| Oc1ccc(N=Nc2nccs2)c(O)c1 | 7250 nM |
| O=C(Nc1cc(F)cc(F)c1)c1ccc(NCCCN2CCCCCC2)c([N+](=O)[O-])c1 | > 16000 nM (inactive) |

| SMILES | EC50 |
| --- | --- |
| CC(=O)Nc1ccc(N2CC(C)(C)C2=O)cc1 | > 15000 nM (inactive) |
| C/C(=N\NC(=O)CCC(=O)Nc1ccc(C)c(C)c1)C1CC1 | > 15000 nM (inactive) |
| CCOc1ccc2nc(NC(=S)N(C)C)sc2c1 | 1220 nM |
| Cc1nn(-c2ccccc2)c(N)c1N=Nc1ccc(Cl)cc1 | 7760 nM |
| CCN(CC)c1ccc(/C=N/NC(=O)c2ccc3nc[nH]c3c2)c(O)c1 | 1160 nM |
| CCN(CC)S(=O)(=O)c1cc(OC)ccc1N=Nc1ccc(O)c2ncccc12 | 1560 nM |
| COc1ccc(C2N=C(Nc3ccc(C)cc3)Nc3nc(C)cc(=O)n32)cc1 (stereo unspecified) | > 16000 nM (inactive) |
| Cc1cc2oc3ccc(NCCCn4ccnc4)cc3c(=O)c2cc1C | 1990 nM |
| Cc1ccc2nsnc2c1NC(=O)COc1ccccc1F | > 15000 nM (inactive) |
| O=S(=O)(Nc1cccc2cccnc12)c1ccc(S(=O)(=O)N2CCCC2)cc1 | 5620 nM |
| CCC(=O)N1c2ccc(S(=O)(=O)CCC(=O)N3CCn4c3nc3ccccc34)cc2CC1C (stereo unspecified) | 1120 nM |
| CC(=O)NC(CC(=O)NNC(=O)c1cc2ccccc2cc1O)c1ccccc1 (stereo unspecified) | 16000 nM |
| C/C(=N\NC(=O)c1cc(-c2cccs2)nc2ccccc12)c1ccccn1 | 1820 nM |
| CCOC(=O)C1CCN(CCC(=O)Nc2ccc(F)cc2)CC1 | > 15000 nM (inactive) |
| Cc1c2ccccc2nc2c(F)c(NCCO)c(F)c(F)c12 | > 16000 nM (inactive) |
| Cc1c(Cl)ccc(S(=O)(=O)Nc2cccnc2)c1Cl | > 15000 nM (inactive) |
| Cc1cccc(/C=C/C(=O)c2cc(Br)ccc(=O)c2O)c1 | 987 nM |
| Cc1ccc(C(=O)CC(=O)c2ccc(C(C)(C)C)cc2)cc1 | 6220 nM |
| COc1ccc(NC(=O)Nc2nc3c(s2)CCCC3)cc1 | 2740 nM |
| Cc1cccc(NC(=S)N/N=C(\c2ccccc2)C(C)C)c1 | 3120 nM |
| Cc1csc2ncnc(NCCc3ccccn3)c12 | 6030 nM |
| CCN=c1scc(C)n1/N=C/c1ccc(O)c(O)c1O | > 15000 nM (inactive) |
| O=C(NCc1cc([N+](=O)[O-])ccc1O)c1cccnc1Sc1ccccc1Cl | 148 nM |

| SMILES | EC50 |
| --- | --- |
| CNC(=S)N/N=C/c1ccc(-c2ccc(Cl)c([N+](=O)[O-])c2)o1 | 1940 nM |
| O=c1c(Cl)c(NCCCO)cnn1-c1nc2ccccc2[nH]1 | > 15000 nM (inactive) |
| CCn1c(=S)[nH]c2scc(-c3cccs3)c2c1=O | > 16000 nM (inactive) |
| Clc1ccc(OCCn2ccnc2)c2ccccc12 | 2910 nM |
| COC(=O)c1c(C(=O)OC)c(-c2ccc(Cl)c(Cl)c2)n2c1CCC2 | 8980 nM |
| COc1cc(OC)cc(-c2nnc(Nc3nc4c(F)cccc4s3)o2)c1 | > 15000 nM (inactive) |
| S=c1[nH]nc(C2CCCCC2)n1/N=C/c1ccc(Br)s1 | 1940 nM |
| COc1cccc(C2CC(c3ccc(NS(C)(=O)=O)cc3)=NN2C(=O)c2ccccc2)c1OC (stereo unspecified) | 3730 nM |
| O=C(Cc1ccc(Cl)cc1)NNC(=S)NC(=O)c1cccs1 | 1570 nM |
| Cc1cccc(N2CCN(c3nc(C)cc(C)c3C#N)CC2C)c1 (stereo unspecified) | > 16000 nM (inactive) |
| O=C1CS/C(=N\C(=O)N2c3ccccc3Sc3ccccc32)N1 | 1090 nM |
| COc1cc2c(cc1O)CC[n+]1cc3c(OC)c(OC)ccc3cc1-2 | > 16000 nM (inactive) |
| Cc1c(Cl)ccc2c1NC(=O)[C@]21N[C@@H](Cc2ccccc2)[C@H]2C(=O)N(c3ccc(F)cc3)C(=O)[C@H]21 | < 120 nM |
| COc1ccc(NC(=O)C(=O)NNC(=O)c2ccc(Cl)cc2Cl)cc1 | 888 nM |
| C(#Cc1ccccc1)C[N+]1(CC#Cc2cccc3ccccc23)CCCC1 | 5640 nM |
| Cc1cc(Nc2ccccc2)nc(NCc2ccccc2)n1 | 3350 nM |
| CCCCn1c(CN2CCN(C(=O)OCC)CC2)nc2c1c(=O)n(C)c(=O)n2C | > 15000 nM (inactive) |
| CCCOc1cccc(-c2cc(C(=O)NNC(=S)NCC)c3ccccc3n2)c1 | 891 nM |
| CC(=O)Nc1ccc(N2CCCCC2)c(C(=O)Nc2cccc(C)c2)c1 | > 16000 nM (inactive) |
| O=C(N/N=C/c1cc(Br)c(O)c(Br)c1)c1cc2c(ccc3ccccc32)o1 | 915 nM |
| COc1ccccc1NC(=O)CN1CCN(c2ccccc2OC)CC1 | > 16000 nM (inactive) |
| CCN(CC)c1ccc(/C=N/Nc2nc3ccccc3[nH]2)cc1 | 870 nM |
| COc1ccc(-c2n(CC(=O)OC3CC(C)CCC3C(C)C)c3ccccc3[n+]2C)cc1 (stereo unspecified) | 365 nM |

| SMILES | EC50 |
| --- | --- |
| Cc1cc(C)n(-c2nc3ccccc3c(=O)n2OCC#N)n1 | 456 nM |
| C=CCNC(=S)Nc1sc2c(c1C(=O)OCC)CC(C)(CC)OC2 (stereo unspecified) | 1380 nM |
| CCC(=O)NC(c1cccs1)c1ccc2cccnc2c1O (stereo unspecified) | 1510 nM |
| NC(=NCCCCCCN=C(N)/N=C(\N)Nc1ccc(Cl)cc1)/N=C(\N)Nc1ccc(Cl)cc1 | 741 nM and 1510 nM and 2130 nM |
| CCN1CCN(C(c2cccnc2)c2cc(Cl)c3cccnc3c2O)CC1 (stereo unspecified) | 978 nM |
| C(C#CCCCCCCCCC[n+]1ccccc1)#CCCCCCCCCC[n+]1ccccc1 | 3520 nM |
| CN(/C(=N/S(=O)(=O)c1cccs1)c1ccccc1)c1ccc(O)cc1 | > 15000 nM (inactive) |
| CCN(c1ccccc1)S(=O)(=O)c1ccc(C(=O)Nc2nnc(C3CC3)o2)cc1 | 2220 nM |
| O=C(N/N=C/c1cc(Br)cc(Cl)c1O)c1ccc2c(c1)OCO2 | 2750 nM |
| O=C(COc1ccccc1)NNC(=S)NC(=O)c1ccc(Cl)cc1Cl | 4840 nM |
| CCCCn1c(SCC(=O)Nc2cccc(OC)c2)nc2ccc(N3CCOCC3)cc2c1=O | 3630 nM |
| c1ccc(CN2CCc3nc4ccccc4cc3C2)cc1 | > 16000 nM (inactive) |
| O=S(=O)(c1ccc(Cl)s1)N1CCCc2cccc(O)c21 | > 15000 nM (inactive) |
| Cc1cc(Oc2ccccc2)nc(-c2ccccc2O)n1 | > 15000 nM (inactive) |
| Cc1nn2c([nH]c(=O)c3ccccc32)c1C=O | 961 nM |
| COc1ccc(CCC(=O)N2CC(C)OC(C)C2)cc1 (stereo unspecified) | > 15000 nM (inactive) |
| CCN(CC)c1ccc(/C=C/c2cccc[n+]2C)c(OC)c1 | 1230 nM |
| CN(C)c1ccc(C(=O)N/N=C/c2cc(Br)cc(Br)c2O)cc1 | 10900 nM |
| N#C/C(=C(/O)c1ccco1)c1nc2ccccc2[nH]1 | 676 nM |
